The record followed here is ChEMBL document CHEMBL3580568, “Design and synthesis of close analogs of LCRF-0004, a potent and selective RON receptor tyrosine kinase inhibitor” (Bioorg Med Chem Lett, 2015).

Assay [1] concerns MDA-MB-231. The assay can be described thus: Antiproliferative activity against human MDA-MB-231 cells by MTT assay. The class given is functional, cell-based. Background: Tetrazolium assays rely on reduction of a dye to a coloured formazan, in cell work by metabolically active cells.
Assay [2] addresses Hepatocyte growth factor receptor (Homo sapiens, UniProt P08581). The assay can be described thus: Inhibition of phosphorylation of c-Met in human MKN45 cells.
Assay [3] addresses T1, Macrophage-stimulating protein receptor (Homo sapiens, UniProt Q04912). The assay can be described thus: Inhibition of RON phosphorylation in human PC3 cells. The class given is cell-based, PC-3.
The target in assay [4] is T1, Macrophage-stimulating protein receptor. The assay can be described thus: Inhibition of RON (unknown origin) kinase domain by enzymatic assay.
Assay [5] shares this target. As to the kind of experiment: Inhibition of RON phosphorylation in human HT29 cells. The class given is cell-based, HT-29.
Assay [6] concerns A549. The assay can be described thus: Antiproliferative activity against human A549 cells by MTT assay. The class given is functional, cell-based.

Molecules are shown by their SMILES.

T1 sequence (Q04912 25-304 limits assumed): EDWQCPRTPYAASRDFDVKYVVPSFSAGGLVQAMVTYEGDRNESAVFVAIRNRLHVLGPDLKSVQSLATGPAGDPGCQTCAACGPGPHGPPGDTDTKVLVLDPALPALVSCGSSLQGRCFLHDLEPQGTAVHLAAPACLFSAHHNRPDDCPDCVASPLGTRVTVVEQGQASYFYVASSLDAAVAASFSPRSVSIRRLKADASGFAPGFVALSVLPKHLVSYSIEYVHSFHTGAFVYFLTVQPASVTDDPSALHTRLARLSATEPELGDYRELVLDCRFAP
T1 sequence (Q04912 310-1400 limits assumed): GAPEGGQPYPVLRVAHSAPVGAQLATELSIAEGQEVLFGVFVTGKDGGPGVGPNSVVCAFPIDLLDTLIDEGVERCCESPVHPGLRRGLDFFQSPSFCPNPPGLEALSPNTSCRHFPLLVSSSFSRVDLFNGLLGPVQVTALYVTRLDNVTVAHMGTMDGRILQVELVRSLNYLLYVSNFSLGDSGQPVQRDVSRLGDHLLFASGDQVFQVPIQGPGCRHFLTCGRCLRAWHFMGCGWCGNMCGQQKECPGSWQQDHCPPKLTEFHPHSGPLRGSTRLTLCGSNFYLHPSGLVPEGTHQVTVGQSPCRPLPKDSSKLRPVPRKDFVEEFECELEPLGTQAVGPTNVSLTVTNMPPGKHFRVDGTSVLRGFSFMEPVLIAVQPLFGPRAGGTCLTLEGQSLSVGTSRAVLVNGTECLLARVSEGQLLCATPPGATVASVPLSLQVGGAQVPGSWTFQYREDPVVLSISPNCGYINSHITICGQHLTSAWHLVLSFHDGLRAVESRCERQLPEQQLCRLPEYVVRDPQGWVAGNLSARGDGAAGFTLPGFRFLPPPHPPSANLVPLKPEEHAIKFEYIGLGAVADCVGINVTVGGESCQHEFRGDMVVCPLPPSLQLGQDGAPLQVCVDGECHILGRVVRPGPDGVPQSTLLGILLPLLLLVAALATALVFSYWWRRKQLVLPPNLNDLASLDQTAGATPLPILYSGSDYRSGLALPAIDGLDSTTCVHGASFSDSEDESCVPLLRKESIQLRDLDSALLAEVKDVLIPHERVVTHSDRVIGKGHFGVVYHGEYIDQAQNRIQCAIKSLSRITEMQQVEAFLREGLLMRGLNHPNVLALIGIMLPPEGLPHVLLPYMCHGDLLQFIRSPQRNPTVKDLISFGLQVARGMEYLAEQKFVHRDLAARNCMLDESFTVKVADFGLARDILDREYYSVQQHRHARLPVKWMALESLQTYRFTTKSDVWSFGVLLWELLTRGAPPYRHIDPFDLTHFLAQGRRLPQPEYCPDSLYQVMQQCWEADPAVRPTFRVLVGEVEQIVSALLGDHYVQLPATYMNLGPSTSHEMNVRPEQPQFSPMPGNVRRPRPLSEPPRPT
Hepatocyte growth factor receptor, sequence (P08581 whole entry): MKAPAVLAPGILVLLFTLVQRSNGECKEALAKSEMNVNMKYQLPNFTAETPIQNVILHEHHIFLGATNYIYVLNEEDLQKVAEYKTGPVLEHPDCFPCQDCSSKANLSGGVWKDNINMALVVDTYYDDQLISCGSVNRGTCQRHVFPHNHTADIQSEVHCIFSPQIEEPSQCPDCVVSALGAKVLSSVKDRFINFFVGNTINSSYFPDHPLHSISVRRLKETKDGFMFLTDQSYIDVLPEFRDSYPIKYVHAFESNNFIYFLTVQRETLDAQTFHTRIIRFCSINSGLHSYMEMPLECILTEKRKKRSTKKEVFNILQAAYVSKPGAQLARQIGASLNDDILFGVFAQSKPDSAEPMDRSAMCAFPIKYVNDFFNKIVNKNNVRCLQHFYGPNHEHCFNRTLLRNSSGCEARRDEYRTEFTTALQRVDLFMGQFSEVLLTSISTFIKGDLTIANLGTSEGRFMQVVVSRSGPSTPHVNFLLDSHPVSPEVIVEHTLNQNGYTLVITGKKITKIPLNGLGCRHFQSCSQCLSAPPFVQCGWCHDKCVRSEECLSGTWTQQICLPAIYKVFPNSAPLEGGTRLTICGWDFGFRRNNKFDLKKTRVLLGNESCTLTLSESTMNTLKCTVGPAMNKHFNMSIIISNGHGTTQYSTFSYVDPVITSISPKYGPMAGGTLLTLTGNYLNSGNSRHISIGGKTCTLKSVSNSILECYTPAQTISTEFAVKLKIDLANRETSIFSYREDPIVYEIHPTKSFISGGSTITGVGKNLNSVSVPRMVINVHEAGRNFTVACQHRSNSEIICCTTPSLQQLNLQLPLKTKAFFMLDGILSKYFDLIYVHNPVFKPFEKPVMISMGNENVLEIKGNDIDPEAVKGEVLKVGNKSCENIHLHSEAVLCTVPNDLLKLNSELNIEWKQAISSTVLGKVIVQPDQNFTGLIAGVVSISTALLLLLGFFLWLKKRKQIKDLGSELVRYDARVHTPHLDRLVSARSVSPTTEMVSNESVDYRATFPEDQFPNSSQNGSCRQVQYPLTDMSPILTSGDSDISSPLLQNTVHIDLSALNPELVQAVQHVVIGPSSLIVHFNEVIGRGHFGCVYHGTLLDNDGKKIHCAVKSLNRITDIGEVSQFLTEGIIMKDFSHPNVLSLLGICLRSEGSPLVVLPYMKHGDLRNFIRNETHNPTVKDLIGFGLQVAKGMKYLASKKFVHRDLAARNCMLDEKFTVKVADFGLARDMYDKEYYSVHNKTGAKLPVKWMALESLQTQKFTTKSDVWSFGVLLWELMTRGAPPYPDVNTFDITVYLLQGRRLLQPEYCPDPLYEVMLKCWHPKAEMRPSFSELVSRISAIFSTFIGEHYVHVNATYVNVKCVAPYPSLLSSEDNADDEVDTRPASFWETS

Regarding `Cn1cnc(-c2cc3nccc(Oc4ccc(NC(=O)c5cnn(-c6ccccc6)c5C(F)(F)F)cc4F)c3s2)c1`, the IC50 in assay [1] stood at 100 nM; in assay [2], 6870 nM; in assay [3], 30 nM; in assay [4], 12 nM; in assay [5], 30 nM; in assay [6], 100 nM.
For `Cn1cnc(-c2cc3nccc(Oc4ccc(NC(=O)c5ccn(-c6ccccc6)c5C(F)(F)F)cc4F)c3s2)c1`, the IC50 result in assay [2] (mkn-45) is “Not Active”.

The IC50 is the concentration needed to halve the response being measured. Low values mean inhibition by little substance, high ones a need for much substance.
